One test addresses HSP90α (Homo sapiens, UniProt P07900). The experiment in a line: Affinity to HSP90α. Format: binding.
Another test relates to Her-2 (HSP90 client). The test is described as follows: Her-2 (HSP90 client) degradation (client depletion). Format: cell-based. How it is done:
A number of the compounds of the invention were tested for affinity to HSP90α (see Kim et al., J. Biomol. Screen., 2004, 9, 375), Her-2 (HSP90 client) degradation (see Xu et al., J. Biol. Chem., 2001, 276, 3702), and cytotoxicity against SKBr3 and HCC1954, two breast cancer cell lines which over express Her-2.

The mark [1] stands for this setting: read-out: Client Depletion; Her-2 degradation.
[2] abbreviates: Her-2 degradation; read-out: Client Depletion.

SMILES strings stand for the structures. Read-outs that look alike come from different tables or passages of the source.

The source of these data is patent US10239856B2, “Synthesis of resorcylic acid lactones useful as therapeutic agents” (UNIVERSITY DE STRASBOURG, priority 2008, dated 2019).

Regarding `O=C1OCC/C=C/CCCCC(=NOCC(=O)N2CCCCC2)Cc2c(Cl)c(O)cc(O)c21` [13g], on HSP90α (read-out: HSP90 affinity), the IC50 was 81 nM.

With `C/C1=C\C(=NOCC(=O)N2CCCCC2)Cc2cc(O)cc(O)c2C(=O)O[C@H](C)C/C=C/CC1` [compound 336], the IC50 on HSP90α (read-out: HSP90 affinity) is under 52 nM.

Consider `C/C1=C\C(=NOCC(=O)N2CCCCC2)Cc2cc(O)cc(O)c2C(=O)OCC/C=C/CC1` [compound 349], for which the IC50 in the test with Her-2 (HSP90 client) (setting [1]) is 105 nM; at HSP90α (HSP90 affinity), 46 nM.

Regarding `CCCC1C/C=C/CC/C(C)=C/C(=NOCC(=O)N2CCCCC2)Cc2cc(O)cc(O)c2C(=O)O1` (stereo not drawn) [compound 350], the values for the IC50 with Her-2 (HSP90 client) (setting [1]) and on HSP90α (HSP90 affinity) were 805 nM and 196 nM, respectively.

In the case of `CCN(CC)C(=O)CON=C1/C=C(\C)CC/C=C/C[C@@H](C)OC(=O)c2c(O)cc(O)cc2C1` [compound 351], the figures for the IC50 with Her-2 (HSP90 client) (setting [1]) and on HSP90α (HSP90 affinity) were 900 nM and 204 nM, respectively.

For `O=C1OC/C=C/CCCCC(=NOCC(=O)N2CCCCC2)Cc2cc(O)cc(O)c21` [compound 353], the values for the IC50 in the test on Her-2 (HSP90 client) (setting [2]) and on HSP90α (read-out: HSP90 affinity) were over 10000 nM and 3030 nM, respectively.

Regarding `O=C1OCC/C=C/CCCCC(=NOCC(=O)N2CCCCC2)Cc2c(Cl)c(O)cc(O)c21` [compound 356], the IC50 with Her-2 (HSP90 client) (setting [2]) came to 9480 nM; at HSP90α (read-out: HSP90 affinity) it was 511 nM.

For `CCN(CC)C(=O)CON=C1/C=C/CC/C=C/CCOC(=O)c2c(O)cc(O)cc2C1` [compound 357], the IC50 with Her-2 (HSP90 client) (setting [1]) stood at 730 nM; on HSP90α (HSP90 affinity) it was 196 nM.

As for `CCCC1C/C=C/CC/C=C/C(=NOCC(=O)N2CCCCC2)Cc2cc(O)cc(O)c2C(=O)O1` (stereo not drawn) [compound 358], the IC50 with Her-2 (HSP90 client) (setting [1]) is over 10000 nM; at HSP90α (HSP90 affinity), 587 nM.

Consider `CCCC1C/C=C/CCCCC(=NOCC(=O)N2CCCCC2)Cc2cc(O)cc(O)c2C(=O)O1` (stereo not drawn) [compound 359], for which the IC50 is over 8800 nM in the test on Her-2 (HSP90 client) (setting [1]) and 1940 nM at HSP90α (HSP90 affinity).

For `CC1/C=C/CCCOC(=O)c2c(O)cc(O)cc2CC(=NOCC(=O)N2CCCCC2)/C=C/C1` (stereo not drawn) [compound 361], the figures for the IC50 in the test with Her-2 (HSP90 client) (setting [2]) and at HSP90α (read-out: HSP90 affinity) were 2960 nM and 543 nM, respectively.

Take `CCCC1C/C=C/CC/C(C)=C/C(=NOCC(=O)N(CC)CC)Cc2cc(O)cc(O)c2C(=O)O1` (stereo not drawn) [compound 362]: the values for the IC50 in the test on Her-2 (HSP90 client) (setting [1]) and on HSP90α (HSP90 affinity) were over 10000 nM and 4660 nM, respectively.

Turning to `CCCC1C/C=C/CC/C(C)=C/C(=NOCC(=O)N(CC)CC)Cc2cc(O)cc(O)c2C(=O)O1` (stereo not drawn) [compound 363], the IC50 was over 10000 nM in the test on Her-2 (HSP90 client) (setting [1]) and 900 nM at HSP90α (HSP90 affinity).

For the compound `CCCC1C/C=C/C(C)C/C=C/C(=NOCC(=O)N2CCCCC2)Cc2c(Cl)c(O)cc(O)c2C(=O)O1` (stereo not drawn) [compound 365], the IC50 worked out at 8970 nM in the test with Her-2 (HSP90 client) (setting [1]) and 1750 nM on HSP90α (HSP90 affinity).

On to `CC1/C=C/CCOC(=O)c2c(O)cc(O)c(Cl)c2CC(=NOCC(=O)N2CCCCC2)/C=C/C1` (stereo not drawn) [compound 366], for which the values for the IC50 in the test on Her-2 (HSP90 client) (setting [1]) and against HSP90α (HSP90 affinity) were 2040 nM and 170 nM, respectively.

`CC1/C=C/CCCOC(=O)c2c(O)cc(O)c(Cl)c2CC(=NOCC(=O)N2CCCCC2)/C=C/C1` (stereo not drawn) [compound 367]: the IC50 was over 10000 nM with Her-2 (HSP90 client) (setting [1]) and 1720 nM on HSP90α (HSP90 affinity).

As for `CC1/C=C/COC(=O)c2c(O)cc(O)c(Cl)c2CC(=NOCC(=O)N2CCCCC2)/C=C/C1` (stereo not drawn) [compound 368], the IC50 is over 10000 nM with Her-2 (HSP90 client) (setting [2]) and 599 nM at HSP90α (read-out: HSP90 affinity).

In the case of `CC1/C=C/C[C@@H](C)OC(=O)c2c(O)cc(O)c(Cl)c2CC(=NOCC(=O)N2CCCCC2)/C=C/C1` (stereo partly drawn) [compound 369], the IC50 with Her-2 (HSP90 client) (setting [1]) came out at 677 nM; against HSP90α (HSP90 affinity), 154 nM.

Turning to `CC1/C=C/CCOC(=O)c2c(O)cc(O)cc2CC(=NOCC(=O)N2CCCCC2)/C=C/C1` (stereo not drawn) [compound 370], the IC50 was 97 nM with Her-2 (HSP90 client) (setting [1]) and 38 nM against HSP90α (HSP90 affinity).

The compound `O=C1OCC/C=C/CC/C=C/C(=NOCC(=O)N2CCNCC2)Cc2cc(O)cc(O)c21` [compound 393] had an IC50 on HSP90α (HSP90 affinity) of 97 nM.

On to `C[C@@H]1C/C=C/[C@@H](O)C/C=C/C(=N/OCC(=O)N2CCCCC2)Cc2cc(O)cc(O)c2C(=O)O1` [compound 457], for which the IC50 against HSP90α (HSP90 affinity) came out at 12 nM.

As to `C[C@@H]1C[C@H]2O[C@@H]2/C=C\C=C\C(=O)Cc2c(Cl)c(O)cc(O)c2C(=O)O1` [radicicol, reference compound], in the test with Her-2 (HSP90 client) (setting [1]), the IC50 turned out to be 450 nM.
